This is an account of results in US10829473B2, “Modulators of the cystic fibrosis transmembrane conductance regulator protein and methods of use” (AbbVie Overseas S.Á.R.L., priority 2017, dated 2020).

Read-outs that look alike come from different tables or passages of the source. Marks after values point to notes of the source that are not given here. Bounds are passed on as bounds.

For the assay, the target named is T1, F508delCFTR (Homo sapiens, UniProt P13569, DEL508-508).
T1 construct: expressed in transfected cells; host or cells: CFBE41o- human lung derived epithelial cells (CFBE41o-F508delCFTR-HRP), doxycycline-inducible
T1 sequence (P13569 with tags, fused parts or gaps DEL508-508): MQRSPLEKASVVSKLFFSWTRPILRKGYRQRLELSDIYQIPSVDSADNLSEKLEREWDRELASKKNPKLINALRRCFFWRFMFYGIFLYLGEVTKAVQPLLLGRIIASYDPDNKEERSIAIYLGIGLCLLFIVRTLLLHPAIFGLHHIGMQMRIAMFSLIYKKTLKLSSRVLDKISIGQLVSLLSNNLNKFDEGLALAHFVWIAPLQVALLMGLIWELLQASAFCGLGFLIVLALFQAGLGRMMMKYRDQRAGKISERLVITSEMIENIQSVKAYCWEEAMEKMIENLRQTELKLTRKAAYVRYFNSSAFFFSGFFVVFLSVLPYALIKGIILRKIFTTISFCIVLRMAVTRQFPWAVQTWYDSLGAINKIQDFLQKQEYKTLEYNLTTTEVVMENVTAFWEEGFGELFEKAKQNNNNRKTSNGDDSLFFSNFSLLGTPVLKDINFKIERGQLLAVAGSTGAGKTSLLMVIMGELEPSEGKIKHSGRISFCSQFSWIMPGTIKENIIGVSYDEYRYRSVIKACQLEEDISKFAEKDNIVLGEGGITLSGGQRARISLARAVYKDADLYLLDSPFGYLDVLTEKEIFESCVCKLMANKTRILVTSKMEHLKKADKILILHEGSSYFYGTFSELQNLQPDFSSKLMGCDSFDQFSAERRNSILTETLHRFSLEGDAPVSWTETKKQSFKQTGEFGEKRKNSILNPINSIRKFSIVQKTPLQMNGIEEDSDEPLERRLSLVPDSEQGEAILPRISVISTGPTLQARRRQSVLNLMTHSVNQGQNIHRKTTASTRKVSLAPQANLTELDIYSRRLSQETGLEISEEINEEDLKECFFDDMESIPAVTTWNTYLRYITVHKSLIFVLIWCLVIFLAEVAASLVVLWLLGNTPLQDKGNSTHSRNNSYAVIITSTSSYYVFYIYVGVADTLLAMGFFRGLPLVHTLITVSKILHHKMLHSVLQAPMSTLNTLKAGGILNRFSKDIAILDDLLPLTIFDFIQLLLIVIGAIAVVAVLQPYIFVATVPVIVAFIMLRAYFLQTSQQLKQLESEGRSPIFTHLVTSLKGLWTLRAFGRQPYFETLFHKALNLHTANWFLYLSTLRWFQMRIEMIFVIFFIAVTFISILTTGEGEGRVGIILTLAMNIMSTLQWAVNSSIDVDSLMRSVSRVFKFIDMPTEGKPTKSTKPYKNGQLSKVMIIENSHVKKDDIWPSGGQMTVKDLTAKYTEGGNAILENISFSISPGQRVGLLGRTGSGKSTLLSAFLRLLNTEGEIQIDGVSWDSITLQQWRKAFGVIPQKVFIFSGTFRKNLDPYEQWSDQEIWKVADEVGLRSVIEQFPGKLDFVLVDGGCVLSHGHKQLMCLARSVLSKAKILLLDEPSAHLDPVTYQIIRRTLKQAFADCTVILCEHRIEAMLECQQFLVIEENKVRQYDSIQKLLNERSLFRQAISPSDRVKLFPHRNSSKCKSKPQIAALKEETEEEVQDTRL
As to the kind of experiment: Cell Surface Expression-Horse Radish Peroxidase (CSE-HRP) Assay.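 For EC50 (with co-corrector): co-corrector chromenyl benzoic acid corrector at 2 or 3 µM.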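 For Maximum % activity (without co-corrector): % of on-plate positive control chromenyl benzoic acid corrector at 2 or 3 µM.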 It is filed as cell-based. The note with it: for Maximum % activity (with co-corrector) / Emax: maximum at any tested concentration; for Emax: read-out: Maximum % activity (without co-corrector). The gist of the method: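 Corrector compounds were given as 8-point 3-fold series from 20 or 30 μM, with or without a 2 μM co-corrector, for 18-24 h at 33 °C. Surface HRP was read by luminol luminescence as % of positive control; variable-Hill-slope sigmoidal fitting gave EC50 from triplicate plates.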

Where [1] appears, read: test compound alone, without co-corrector, read-out: EC50 (without co-corrector).
Setting [2] is: with co-corrector, read-out: EC50 (with co-corrector).
[3] abbreviates: test compound with co-corrector.
The mark [4] stands for this setting: test compound with co-corrector, read-out: EC50 (with co-corrector).
[5] abbreviates: test compound without co-corrector.
Setting [6] is: test compound without co-corrector, read-out: EC50 (without co-corrector).

Take `COc1ccc(C(C)C)cc1C1(C(=O)NS(=O)(=O)c2cccc3ncccc23)CC1` [Example I-35, 1-[2-methoxy-5-(propan-2-yl)phenyl]-N-(quinoline-5-sulfonyl)cyclopropane-1-carboxamide]: the 50% effective concentration (EC50) by setting is: under setting [1], less than 3 µM; under setting [2], less than 3 µM. The “Maximum % activity (with co-corrector)” value (with co-corrector) is on record as “+++ (≥350)”. Also, the Emax (without co-corrector) is more than 150%.
As for `COc1ccc(C2(C(=O)NS(=O)(=O)c3cccc4ccccc34)CC2)c(C)n1` [GII-19, 1-(6-methoxy-2-methylpyridin-3-yl)-N-(naphthalene-1-sulfonyl)cyclopropane-1-carboxamide], under setting [3], the “Maximum % activity (with co-corrector)” value is “+++ (≥350)”. Besides, the EC50 under setting [4] lay in the range of 3 to 10 µM. Under setting [5], the “EC50 (without co-corrector)” value is “++^a” and the Emax fell in the range of 50 to 150%.
Take `CCc1cccc(OC)c1C1(C(=O)NS(=O)(=O)c2cccc3nc(C)ccc23)CC1` [Example III-133, 1-(2-ethyl-6-methoxyphenyl)-N-(2-methylquinoline-5-sulfonyl)cyclopropane-1-carboxamide]: the concentration giving a half-maximal response (EC50) is, setting by setting: under setting [1], less than 3 µM; under setting [2], less than 3 µM. Moreover, where the note is “with co-corrector”, the “Maximum % activity (with co-corrector)” value is reported as “+++ (≥350)”. Moreover, the Emax (without co-corrector) was more than 150%.
Consider `Cc1ccc2c(S(=O)(=O)NC(=O)C3(c4cc(C(F)(F)F)cnc4N(C)C)CC3)cccc2n1` [Example I-72, 1-[2-(dimethylamino)-5-(trifluoromethyl)pyridin-3-yl]-N-(2-methylquinoline-5-sulfonyl)cyclopropane-1-carboxamide], for which the concentration giving a half-maximal response (EC50) is 3 to 10 µM under setting [1] and less than 3 µM under setting [2]. Moreover, for the setting “with co-corrector”, the “Maximum % activity (with co-corrector)” value is “+++ (≥350)”. The Emax (without co-corrector) was more than 150%.
On the same counts, the results for `CCOc1ccc(C(C)(C)COC)cc1C1(C(=O)NS(=O)(=O)c2cccc3nc(C)ccc23)CC1` [II-105] are less than 3 µM, less than 3 µM, “+++ (≥350)” and more than 150%.
For the compound `Cc1cnc(OCC2CC2)c(C2(C(=O)NS(=O)(=O)c3cccc4[nH]ccc34)CC2)c1` [Example GI-97, 1-[2-(cyclopropylmethoxy)-5-methylpyridin-3-yl]-N-(1H-indole-4-sulfonyl)cyclopropane-1-carboxamide], the “Maximum % activity (with co-corrector)” value under setting [3] is reported as “+++ (≥350)”. Further, the EC50 is, setting by setting: under setting [4], less than 3 µM; under setting [6], less than 3 µM. Also, the Emax under setting [5] is more than 150%.
Consider `CO[C@@H](C)COc1ccc(C)cc1C1(C(=O)NS(=O)(=O)c2cccc3nc(C)ccc23)CC1` [Example I-114, 1-{2-[(2S)-2-methoxypropoxy]-5-methylphenyl}-N-(2-methylquinoline-5-sulfonyl)cyclopropane-1-carboxamide], for which the EC50 reads like this: under setting [1], less than 3 µM; under setting [2], less than 3 µM. For the setting “with co-corrector”, the “Maximum % activity (with co-corrector)” value is “+++ (≥350)”. Further, the Emax (without co-corrector) was more than 150%.
Turning to `CC(C)Oc1ccc(C2CCC2)nc1C1(C(=O)NS(=O)(=O)c2cccc3[nH]ccc23)CC1` [Example GI-38, 1-{6-cyclobutyl-3-[(propan-2-yl)oxy]pyridin-2-yl}-N-(1H-indole-4-sulfonyl)cyclopropane-1-carboxamide], under setting [3], the “Maximum % activity (with co-corrector)” value is on record as “+++ (≥350)”. For the same compound, the concentration giving a half-maximal response (EC50) is less than 3 µM under setting [4] and less than 3 µM under setting [6]. Also, the Emax under setting [5] is more than 150%.
Consider `CC(C)Oc1ncc(C2CCC2)cc1C1(C(=O)NS(=O)(=O)c2cccc3ncccc23)CC1` [Example GI-22, 1-{5-cyclobutyl-2-[(propan-2-yl)oxy]pyridin-3-yl}-N-(quinoline-5-sulfonyl)cyclopropane-1-carboxamide], for which the half-maximal effective concentration (EC50) runs as follows: under setting [1], less than 3 µM; under setting [2], less than 3 µM. In addition, where the note is “with co-corrector”, the “Maximum % activity (with co-corrector)” value was “+++ (≥350)”. The Emax (without co-corrector) was more than 150%.
In the case of `COc1cc(C2CCC2)cc(OC)c1C1(C(=O)NS(=O)(=O)c2cccc3c2ccn3C)CC1` [II-65], the concentration giving a half-maximal response (EC50) by setting is: under setting [1], less than 3 µM; under setting [2], less than 3 µM. Besides, the “Maximum % activity (with co-corrector)” value (with co-corrector) is recorded as “+++ (≥350)”. The Emax (without co-corrector) was more than 150%.
Turning to `CC(C)c1nc(C(F)(F)F)ccc1C1(C(=O)NS(=O)(=O)c2cccc3ncccc23)CC1` [Example GI-7, 1-[2-(propan-2-yl)-6-(trifluoromethyl)pyridin-3-yl]-N-(quinoline-5-sulfonyl)cyclopropane-1-carboxamide], the concentration for a half-maximal effect (EC50) is 3 to 10 µM under setting [1] and less than 3 µM under setting [2]. Further, where the note is “with co-corrector”, the “Maximum % activity (with co-corrector)” value is recorded as “+++ (≥350)”. For the same compound, the Emax (without co-corrector) is more than 150%.
In the same order, the values of `COc1ncc(C2CCC2)cc1C1(C(=O)NS(=O)(=O)c2cccc3[nH]ccc23)CC1` [Example I-21, 1-(5-cyclobutyl-2-methoxypyridin-3-yl)-N-(1H-indole-4-sulfonyl)cyclopropane-1-carboxamide] are less than 3 µM, less than 3 µM, “+++ (≥350)” and more than 150%.
In the same order, the values of `CCC(CC)S(=O)(=O)NC(=O)C1(c2ccccc2)CC1` [Example III-116, N-(pentane-3-sulfonyl)-1-phenylcyclopropane-1-carboxamide] are more than 10 µM, more than 10 µM, “+ (<150)” and less than 50%.
In the same order, the values of `COc1ccccc1C1(C(=O)NS(=O)(=O)c2ccccc2C)CC1` [Example III-85, 1-(2-methoxyphenyl)-N-(2-methylbenzene-1-sulfonyl)cyclopropane-1-carboxamide] are 3 to 10 µM, 3 to 10 µM, “+++ (≥350)” and 50 to 150%.
As for `O=C(NS(=O)(=O)c1cccc2ncccc12)C1(c2cc(OC(F)(F)F)ccc2Cl)CC1` [II-24], the EC50 reads like this: under setting [1], less than 3 µM; under setting [2], less than 3 µM. Also, the “Maximum % activity (with co-corrector)” value (with co-corrector) is “+++ (≥350)”. Also, the Emax (without co-corrector) was more than 150%.
Consider `COc1ccc(C(C)OC)cc1C1(C(=O)NS(=O)(=O)c2cccc3ncccc23)CC1` (stereo not shown) [II-87], for which the 50% effective concentration (EC50) under setting [1] was in the range of 3 to 10 µM and the EC50 under setting [2] is less than 3 µM. Also, for the setting “with co-corrector”, the “Maximum % activity (with co-corrector)” value is reported as “+++ (≥350)”. Besides, the Emax (without co-corrector) was more than 150%.
Regarding `COc1ccc(C)cc1C1(C(=O)NS(=O)(=O)c2cccc3nc(N)ccc23)CC1` [Example I-79, N-(2-aminoquinoline-5-sulfonyl)-1-(2-methoxy-5-methylphenyl)cyclopropane-1-carboxamide], the EC50 under setting [1] is less than 3 µM and the EC50 under setting [2] is less than 3 µM. Where the note is “with co-corrector”, the “Maximum % activity (with co-corrector)” value is “+++ (≥350)”. Where the note is “without co-corrector”, the Emax was more than 150%.
On to `Cc1cnc(OCC(C)C)c(C2(C(=O)NS(=O)(=O)c3cccc4ncccc34)CC2)c1` [Example GI-42, 1-[5-methyl-2-(2-methylpropoxy)pyridin-3-yl]-N-(quinoline-5-sulfonyl)cyclopropane-1-carboxamide], for which, under setting [3], the “Maximum % activity (with co-corrector)” value was “+++ (≥350)”. Also, the EC50 is less than 3 µM under setting [4] and less than 3 µM under setting [6]. Moreover, under setting [5], the Emax was more than 150%.
Regarding `O=C(NS(=O)(=O)c1cccc(C(F)(F)F)c1)C1(c2ccc(Cl)cc2Cl)CC1` [Example III-15, 1-(2,4-dichlorophenyl)-N-[3-(trifluoromethyl)benzene-1-sulfonyl]cyclopropane-1-carboxamide], the 50% effective concentration (EC50) reads like this: under setting [1], 3 to 10 µM; under setting [2], 3 to 10 µM. For the setting “with co-corrector”, the “Maximum % activity (with co-corrector)” value is “++ (≥150 and <350)”. Besides, the Emax (without co-corrector) was less than 50%.
On to `COc1ncc(C(F)(F)F)cc1C1(C(=O)NS(=O)(=O)c2cccc3ncc(C)n23)CC1` [II-19], for which the EC50 by setting is: under setting [1], 3 to 10 µM; under setting [2], 3 to 10 µM. In addition, the “Maximum % activity (with co-corrector)” value (with co-corrector) was “+++ (≥350)”. The Emax (without co-corrector) is 50 to 150%.
Consider `COc1ccc(C2(OC)CCC2)cc1C1(C(=O)NS(=O)(=O)c2cccc3nc(C)ccc23)CC1` [II-100], for which the EC50 under setting [1] fell in the range of 3 to 10 µM and the 50% effective concentration (EC50) under setting [2] is less than 3 µM. Further, the “Maximum % activity (with co-corrector)” value (with co-corrector) is “+++ (≥350)”. The Emax (without co-corrector) was more than 150%.
As for `COc1ccc(C2CCC2)cc1C1(C(=O)NS(=O)(=O)c2cccc3c2CCN3C)CC1` [II-40], the EC50 reads like this: under setting [1], 3 to 10 µM; under setting [2], 3 to 10 µM. Under “with co-corrector”, the “Maximum % activity (with co-corrector)” value is reported as “+++ (≥350)”. Besides, for the setting “without co-corrector”, the Emax was more than 150%.
`O=C1CCCN1c1ccc(S(=O)(=O)NC(=O)C2(c3ccc(Cl)cc3Cl)CC2)cc1` [Example III-16, 1-(2,4-dichlorophenyl)-N-[4-(2-oxopyrrolidin-1-yl)benzene-1-sulfonyl]cyclopropane-1-carboxamide]: the EC50 was more than 10 µM under setting [1] and more than 10 µM under setting [2]. The “Maximum % activity (with co-corrector)” value (with co-corrector) is on record as “+ (<150)”. The Emax (without co-corrector) is less than 50%.
Regarding `CCc1cnc(OCCOC)c(C2(C(=O)NS(=O)(=O)c3cccc4nc(C)ccc34)CC2)c1` [GII-56, 1-[5-ethyl-2-(2-methoxyethoxy)pyridin-3-yl]-N-(2-methylquinoline-5-sulfonyl)cyclopropane-1-carboxamide], the “Maximum % activity (with co-corrector)” value under setting [3] is given as “+++ (≥350)”. In addition, the concentration giving a half-maximal response (EC50) lay within 3 to 10 µM under setting [4] and 3 to 10 µM under setting [6]. Moreover, the Emax under setting [5] is more than 150%.
With `CCn1nc(C2(C(=O)NS(=O)(=O)c3cccc4ccccc34)CC2)cc1C` [II-5], the concentration giving a half-maximal response (EC50) under setting [1] was in the range of 3 to 10 µM and the concentration giving a half-maximal response (EC50) under setting [2] was 3 to 10 µM. Further, for the setting “with co-corrector”, the “Maximum % activity (with co-corrector)” value is “++ (≥150 and <350)”. Moreover, the Emax (without co-corrector) was less than 50%.

Broadly, the EC50 is the concentration that produces a half-maximal response.
